Laboratory results from EP4722195A1, “PH-SENSITIVE CATIONIC LIPID AND LIPID NANOPARTICLES” (National University Corporation Hokkaido University, priority 2023, dated 2024).

Columns and labels:
[1] = Zeta potential of lipid nanoparticles; assay type: physicochemical
Procedure: The average particle size (number average value), ζ-average particle size, and polydispersity index (PdI) of the lipid nanoparticles in PBS(-) (pH 7.4), and the zeta potential in 10 mM HEPES buffer (pH 7.4) were measured using an analyzer "Zetasizer Nano ZS ZEN3600" (manufactured by Malvern) utilizing dynamic light scattering.

spleen = experiment: Fluc activity in the spleen of mice administered Fluc mRNA-loaded lipid nanoparticles; assay type: in vivo, BALB/c mice; conditions: Example 22, Fig. 1; TxT/DSPC/chol/PEG-DMG=50/15/35/1.5 (mol%); 0.1 mg mRNA/kg intravenous; six hours after administration; comparison among TxT lipids
Procedure: (§1) Lipid nanoparticles were administered to mice by intravenous injection into the tail vein using a 27G needle. Unless otherwise specified, BALB/c mice (4 to 5 weeks old, female) were used.
(§2) First, BALB/c mice (female, 4 weeks old) were intravenously injected with lipid nanoparticles encapsulating Fluc mRNA (Fluc mRNA-loaded lipid nanoparticles) at a dose of 0.1 mg mRNA/kg. Six hours after intravenous injection, the mice were euthanized, each tissue was collected, frozen in liquid nitrogen, and stored at -80°C. The tissues were homogenized in passive lysis buffer (manufactured by Promega) using a bead-type cell disruptor (Micro Smash MS-100R, manufactured by TOMY Seiko). Tissue debris was removed by centrifugation, and the supernatant was collected. Fluc activity in the supernatant was measured using the Luciferase Assay System (E1500, manufactured by Promega) according to the manufacturer's protocol. Luminescence was measured using a luminometer (Luminescencer-PSN, manufactured by ATTO). Protein concentration was determined using a commercially available assay kit (BCA Protein Assay Kit, manufactured by Pierce). Fluc activity was expressed as relative light units (RLU) per mg of protein. […]

hEPO = hEPO in the serum of mice administered hEPO mRNA-loaded lipid nanoparticles (ELISA); assay type: in vivo; conditions: Example 29, Fig. 8, 6, 24, and 48 hours after administration, N = 3
Procedure: Subsequently, each hEPO mRNA-loaded lipid nanoparticle was administered to mice, and blood samples were collected from the tail vein at 6, 24, and 48 hours after administration (N = 3). The collected blood was allowed to stand at room temperature for 90 minutes, followed by centrifugation at 25°C, 1,000 x g for 15 minutes. The supernatant was collected to obtain serum. The hEPO activity in the serum was measured using a commercially available ELISA kit (Human EPO ELISA Kit, Invitrogen). Calibration samples were prepared by serial dilution from 100 mIU/mL to obtain solutions of […], each in a volume of 450 µL. Serum samples were diluted 10- to 10,000-fold to fall within the calibration range. A volume of 100 µL of each calibration sample and serum sample was applied to the plate, followed by the addition of […] of Biotin-Conjugate and incubation at 18 to 25°C for 1 hour. The wells were washed six times, and 100 µL of Streptavidin-HRP was added to each well and incubated at 18 to 25°C for 15 minutes. After another six washes, 100 µL of TMB Substrate Solution was added to each well, and the plate was shielded from light using aluminum foil and incubated at 18 to 25°C for 10 minutes. Finally, 100 µL of Stop Solution was added, and absorbance at 450 nm was measured using a spectrofluorometer (Varioskan Lux, Thermo Fisher Scientific).

transthyretin (TTR) = experiment: TTR-targeted genome editing in mice, serum TTR (ELISA); assay type: in vivo, Balb/c mice; conditions: for TTR knockout activity: serum TTR one week after administration, N = 3
Procedure: Specifically, an RNA solution was first prepared to contain Cas9-mRNA (TriLink, SmoU-modified) and gRNA targeting transthyretin (TTR) at a mass ratio of 1:2 (N/P = 6.0). Using this RNA solution, in the same manner as Example 27, lipid nanoparticles encapsulating Cas9-mRNA and TTR-gRNA (SEQ ID NO: 1) and having a composition of TxT/DSPC/chol/PEG-DMG = 50/3/47/1.5 (mol%) were prepared (lipid nanoparticles for TTR-targeted genome editing). […]
Subsequently, each of the prepared lipid nanoparticles for TTR-targeted genome editing was administered via tail vein injection to female Balb/c mice (4 weeks old) at a dose of 1.5 mg Cas9 mRNA/kg. […] The collected blood was allowed to stand at room temperature for 1 hour, followed by centrifugation at 25°C, 1,000 × g for 15 minutes. The supernatant was collected to obtain serum. The TTR concentration in the serum was measured using a commercially available ELISA kit (Prealbumin ELISA Kit Mouse, Aviva Systems Biology). Calibration samples were prepared by serial dilution from 500 ng/mL to obtain solutions of 250, 125, 62.5, 31.25, and 15.63 ng/mL, each in a volume of 300 µL. Serum samples were diluted 10,000-fold. A volume of 100 µL of each calibration sample and serum sample was applied to the plate and incubated at 25°C for 30 minutes. The wells were washed four times, and 100 µL of Enzyme-Antibody Conjugate was added to each well. The plate was shielded from light using aluminum foil and incubated at 25°C for 20 minutes. After another four washes, 100 µL of TMB Substrate Solution (Aviva Systems Biology) was added to each well, and the plate was shielded from light using aluminum foil and incubated at 25°C for 10 minutes. Finally, 100 µL of Stop Solution (Aviva Systems Biology) was added, and absorbance at 450 nm was measured using a spectrofluorometer (Varioskan Lux, Thermo Fisher Scientific).
Subsequently, the lipid nanoparticles for TTR-targeted genome editing were administered to mice and serum TTR levels (µg/mL) were measured (N = 3) in the same manner as in Example 32, except that a dose of Cas9-mRNA was adjusted to 0.1, 0.3, and 1.0 mg/kg. In the figure, "NT" indicates the measurement result of serum from mice that were not administered lipid nanoparticles.

various tissues = experiment: Fluc activity in various tissues of mice administered Fluc mRNA-loaded lipid nanoparticles; assay type: in vivo, BALB/c mice; conditions: Example 23, Figs. 2B to 2E; TxT-5-5A16/DSPC/chol/PEG-DMG=50/X/50-X/1.5 (mol%); 0.1 mg mRNA/kg; six hours
Procedure: as §1, §2

[2] = Table 1, Fluc mRNA-loaded lipid nanoparticles, TxT/DSPC/chol/PEG-DMG=50/15/35/1.5 (mol%)
[3] = Table 3, Fluc mRNA-loaded lipid nanoparticles, TxT/DSPC/chol/PEG-DMG=50/3/47/1.5 (mol%)
[4] = Table 5, EGFP mRNA-loaded lipid nanoparticles, TxT/DSPC/chol/PEG-DMG=50/3/47/1.5 (mol%), total flow rate 3.0 mL/min
[5] = Table 6 (Example 28), Fluc mRNA-loaded lipid nanoparticles, TxT/DSPC/chol/PEG-DMG=50/3/47/1.5 (mol%)
[6] = Table 7, hEPO mRNA-loaded lipid nanoparticles, TxT/DSPC/chol/PEG-DMG=50/3/47/1.5, SM-102/DSPC/chol/PEG-DMG=50/10/40/1.5 (mol%)
[7] = Table 8 (Example 32), lipid nanoparticles for TTR-targeted genome editing, Cas9-mRNA and TTR-gRNA 1:2 (N/P = 6.0), TxT/DSPC/chol/PEG-DMG = 50/3/47/1.5 (mol%)
[8] = Example 32, Fig. 11, 1.5 mg Cas9 mRNA/kg tail vein

Compound	ζ-potential [1, 2]	ζ-potential [1, 3]	ζ-potential [1, 4]	ζ-potential [1, 5]	ζ-potential [1, 6]	ζ-potential [1, 7]	Fluc activity in the spleen (spleen)	hEPO concentrations in serum compared to lipid nanoparticles comprising SM-102 (hEPO)	TTR knockout activity (transthyretin (TTR); [8])	ζ-potential ([1]; Table 4, Fluc mRNA-loaded lipid nanoparticles, TxT-5-5A14/DSPC/chol/PEG-DMG=50/3/47/1.5, SM-102, ALC-0315 or MC3/DSPC/chol/PEG-DMG=50/10/40/1.5 (mol%))	ζ-potential ([1]; Table 9 (Example 33), lipid nanoparticles for TTR-targeted genome editing, Cas9-mRNA and TTR-gRNA 1:2 (N/P = 6.0), TxT-5-5A14/DSPC/chol/PEG-DMG = 50/3/47/1.5 (mol%))	ζ-potential ([1]; Table 10 (Example 34), lipid nanoparticles for PCSK9-targeted genome editing, Cas9-mRNA and PCSK9-gRNA 1:2 (N/P = 6.0), TxT-5-5A14/DSPC/chol/PEG-DMG = 50/3/47/1.5 (mol%))	TTR knockout efficiency versus dose (transthyretin (TTR); Example 33, Fig. 12, 0.1, 0.3, and 1.0 mg/kg)	TTR knockout activity (transthyretin (TTR); Example 33, Fig. 12, dose of 0.3 mg RNA/kg)	ζ-potential ([1]; Table 2, Fluc mRNA-loaded lipid nanoparticles, TxT-5-5A16/DSPC/chol/PEG-DMG=50/X/50-X/1.5 (mol%), DSPC concentration 3 mol %)	ζ-potential ([1]; Table 2, Fluc mRNA-loaded lipid nanoparticles, TxT-5-5A16/DSPC/chol/PEG-DMG=50/X/50-X/1.5 (mol%), DSPC concentration 6 mol %)	ζ-potential ([1]; Table 2, Fluc mRNA-loaded lipid nanoparticles, TxT-5-5A16/DSPC/chol/PEG-DMG=50/X/50-X/1.5 (mol%), DSPC concentration 9 mol %)	ζ-potential ([1]; Table 2, Fluc mRNA-loaded lipid nanoparticles, TxT-5-5A16/DSPC/chol/PEG-DMG=50/X/50-X/1.5 (mol%), DSPC concentration 12 mol %)	ζ-potential ([1]; Table 2, Fluc mRNA-loaded lipid nanoparticles, TxT-5-5A16/DSPC/chol/PEG-DMG=50/X/50-X/1.5 (mol%), DSPC concentration 15 mol %)	Effect of DSPC content on Fluc activity in the spleen, kidney, lung, and heart (various tissues)
CCCCCCC(CCCC)CNC(=O)CCCC(=O)OCC(COC(=O)CCCC(=O)NCC(CCCC)CCCCCC)(COC(=O)CCCC(=O)NCC(CCCC)CCCCCC)NC(=O)CCN1CCCCC1 (stereo not drawn) [TxT-5-5A12β, 2-(((5-((2-butyloctyl)amino)-5-oxopentanoyl)oxy)methyl)-2-(3-(piperidin-1-yl)propanamido)propane-1,3-diyl bis(5-((2-butyloctyl)amino)-5-oxopentanoate)]	-6.0 mV	-5.6 mV	-7.8 mV	-8.4 mV	-3.0 mV	-3.8 mV	highest Fluc activity in the spleen	clearly higher hEPO concentrations	exceeding 85%											
CCCCCCCN(CCCCCCC)C(=O)CCCC(=O)OCC(COC(=O)CCCC(=O)N(CCCCCCC)CCCCCCC)(COC(=O)CCCC(=O)N(CCCCCCC)CCCCCCC)NC(=O)CCN1CCCCC1 [TxT-5-5A14, 2-(((5-(diheptylamino)-5-oxopentanoyl)oxy)methyl)-2-(3-(piperidin-1-yl)propanamido)propane-1,3-diyl bis(5-(diheptylamino)-5-oxopentanoate)]	-3.4 mV	-7.5 mV	-13.0 mV	-6.4 mV	-1.4 mV	-5.5 mV		clearly higher hEPO concentrations	exceeding 85%	-8.9 mV	-4.0 mV	-1.6 mV	dose-dependent increase in TTR knockout efficiency	no less than 60%						
CCCCCCCCN(CCCCCCCC)C(=O)CCCC(=O)OCC(COC(=O)CCCC(=O)N(CCCCCCCC)CCCCCCCC)(COC(=O)CCCC(=O)N(CCCCCCCC)CCCCCCCC)NC(=O)CCN1CCCCC1 [TxT-5-5A16, 2-(((5-(dioctylamino)-5-oxopentanoyl)oxy)methyl)-2-(3-(piperidin-1-yl)propanamido)propane-1,3-diyl bis(5-(dioctylamino)-5-oxopentanoate)]	-3.3 mV	-2.7 mV	-8.4 mV												-2.7 mV	-2.4 mV	-2.2 mV	-1.9 mV	-4.1 mV	no effect of DSPC content on Fluc activity was observed
